Some test systems named below: HL-60(TB) leukemia; T-47D breast; SF-539 CNS; SF-268 CNS; LOX IMVI melanoma; K-562 leukemia; HCC-2998 colon; HT29 colon; MALME-3M melanoma; NCI-H460 lung.
Common to all, as to experiment: DTP human tumour cell line panel, 48 h

Values joined by “and” are separate entries in the source; they are usually repeats but may differ in a detail not shown here. Identical values can stand only once.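 All cell lines were grown in 96-well plates and treated with compound for 48 hours. The concentration for 50% growth inhibition is given as GI50. TGI marks complete inhibition of growth.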

For orientation: GI50 means the concentration that inhibits growth by half. One may read the TGI as the concentration at which net growth stops. A lower TGI goes with more potent growth arrest. With `C#Cc1ccc(-n2c(/C=C/c3cc(OC)c(OC)c(OC)c3)nc3ncccc3c2=O)cc1`, the GI50 is 3.84 µM with HL-60(TB) leukemia; 5.85 µM with T-47D breast; 4.57 µM in the experiment on SF-539 CNS; 5.33 µM with SF-268 CNS; 4.61 µM in the experiment on LOX IMVI melanoma; 3.83 µM in the experiment with K-562 leukemia. The GI50 is 27.5 µM in the experiment with HCC-2998 colon, 3.92 µM with HT29 colon, 9.74 µM in the experiment on MALME-3M melanoma and 4.11 µM with NCI-H460 lung. Also, the TGI in the experiment on HL-60(TB) leukemia was 25.6 µM; in the experiment with T-47D breast, more than 100 µM; in the experiment on SF-539 CNS it was 37.7 µM; with SF-268 CNS, 98 µM; in the experiment with LOX IMVI melanoma it was 64 µM; in the experiment with K-562 leukemia it was more than 100 µM. In addition, the TGI in the experiment on HCC-2998 colon was more than 100 µM; in the experiment with HT29 colon it was 15.1 µM; in the experiment on MALME-3M melanoma, 70.5 µM; in the experiment with NCI-H460 lung, 25.3 µM.

Regarding `CN1CCN(C(=S)SCN2C(=O)c3ccccc3S2(=O)=O)CC1`, the GI50 is 0.492 µM in the experiment with HL-60(TB) leukemia; 11 µM in the experiment with T-47D breast; 36.8 µM with SF-539 CNS; 37.4 µM in the experiment on SF-268 CNS; 11.6 µM with LOX IMVI melanoma; 14.5 µM with K-562 leukemia. Moreover, the GI50 is 30.9 µM in the experiment with HCC-2998 colon, 4.24 µM in the experiment with HT29 colon, 23.1 µM with MALME-3M melanoma and 17.8 µM in the experiment on NCI-H460 lung. For the same molecule, the TGI with HL-60(TB) leukemia was 20.3 µM; in the experiment on T-47D breast, more than 100 µM; in the experiment on SF-539 CNS, more than 100 µM; with SF-268 CNS, more than 100 µM; with LOX IMVI melanoma, 36.9 µM; in the experiment with K-562 leukemia it was 94.6 µM. Further, the TGI in the experiment with HCC-2998 colon came out at 85.3 µM; in the experiment on HT29 colon it was 18 µM; with MALME-3M melanoma, 95.8 µM; in the experiment on NCI-H460 lung it was 96.1 µM.

With `C#Cc1cccc(Nc2ncnc3ccc(-c4cncc(NS(C)(=O)=O)c4)cc23)c1`, the GI50 was 1.87 µM in the experiment on HL-60(TB) leukemia; 0.209 µM in the experiment with T-47D breast; 1.46 µM with SF-539 CNS; 1.92 µM with SF-268 CNS; 1.26 µM with LOX IMVI melanoma; 3.79 µM in the experiment with K-562 leukemia. Besides, the GI50 was 2.67 µM in the experiment with HCC-2998 colon, 1.86 µM with HT29 colon, 1.11 µM in the experiment on MALME-3M melanoma and 3.46 µM with NCI-H460 lung. The TGI was 6.83 µM in the experiment with HL-60(TB) leukemia; 2.77 µM with T-47D breast; 4.96 µM in the experiment with SF-539 CNS; 11.5 µM in the experiment on SF-268 CNS; 2.86 µM with LOX IMVI melanoma; 19.5 µM in the experiment on K-562 leukemia. In addition, the TGI in the experiment with HCC-2998 colon worked out at 11.8 µM; with HT29 colon, 6.28 µM; in the experiment with MALME-3M melanoma, 9.13 µM; in the experiment on NCI-H460 lung, 13.6 µM.

Take `Cc1cc(N)c2ccccc2[n+]1CCCCCCCCCC[n+]1c(C)cc(N)c2ccccc21`: the GI50 in the experiment with HL-60(TB) leukemia was 0.142 µM; in the experiment with T-47D breast, 0.0959 µM; in the experiment with SF-539 CNS, 0.241 µM and 1.56 µM; with K-562 leukemia it was 0.137 µM; in the experiment on HCC-2998 colon it was 0.253 µM; in the experiment on HT29 colon, 0.223 µM and 1.55 µM. Also, the 50% growth inhibitory concentration (GI50) with MALME-3M melanoma is 0.163 µM and 1.35 µM; in the experiment on NCI-H460 lung, 0.121 µM. In addition, the TGI in the experiment on HL-60(TB) leukemia is 0.545 µM and 2.14 µM; in the experiment with SF-539 CNS, 1.44 µM and 9.96 µM and 3.8 µM; in the experiment with SF-268 CNS, 3.49 µM and 10.3 µM and 32.5 µM; with LOX IMVI melanoma it was 2.29 µM; in the experiment on K-562 leukemia, 2.22 µM and 3.84 µM and 12.4 µM; in the experiment with HCC-2998 colon it was 4.52 µM and 2.76 µM and 9.8 µM. Further, the TGI in the experiment on HT29 colon was 1.51 µM and 5.47 µM and 4.62 µM; in the experiment with NCI-H460 lung it was 0.516 µM and 1.55 µM.

With `CCCCCCCCCCCCCCCCCC1=NC(C)(C)CN1CCO`, the GI50 is 1.81 µM in the experiment with HL-60(TB) leukemia; 2.24 µM with T-47D breast; 1.75 µM with SF-539 CNS; 1.8 µM with SF-268 CNS; 1.54 µM in the experiment with LOX IMVI melanoma; 1.53 µM with K-562 leukemia. The GI50 with HCC-2998 colon is 1.71 µM; in the experiment with HT29 colon, 1.37 µM; with MALME-3M melanoma, 2.18 µM; in the experiment with NCI-H460 lung, 1.97 µM. In addition, the TGI with HL-60(TB) leukemia was 4.11 µM; in the experiment on T-47D breast it was 5.61 µM; in the experiment on SF-539 CNS, 3.15 µM; in the experiment on SF-268 CNS, 3.27 µM; with LOX IMVI melanoma, 2.87 µM; in the experiment on K-562 leukemia, 3.35 µM. In addition, the TGI is 3.11 µM with HCC-2998 colon, 2.66 µM with HT29 colon, 5.6 µM in the experiment on MALME-3M melanoma and 3.65 µM in the experiment on NCI-H460 lung.

With `CCCCCCCCCCCCCCCC(=O)OCC1OC(n2ccc(N)nc2=O)C(O)C1O` (stereo unspecified), the TGI in the experiment with HL-60(TB) leukemia was more than 61.8 µM; with T-47D breast it was more than 100 µM; in the experiment on SF-539 CNS, more than 100 µM; in the experiment with SF-268 CNS, more than 100 µM; in the experiment on LOX IMVI melanoma, more than 100 µM; in the experiment on K-562 leukemia it was more than 100 µM. For the same molecule, the TGI was more than 100 µM in the experiment on HCC-2998 colon, more than 100 µM with HT29 colon, more than 54.6 µM in the experiment with MALME-3M melanoma and more than 40.6 µM with NCI-H460 lung.

Take `CC(C)(C)c1ccc(S(=O)(=O)N[C@H]2CC[C@H]3[C@@H]4CCc5cc(O)ccc5[C@H]4CC[C@]23C)cc1`: the GI50 was 2.31 µM in the experiment on HL-60(TB) leukemia; 2.59 µM in the experiment with T-47D breast; 1.7 µM in the experiment with SF-539 CNS; 3.94 µM with SF-268 CNS; 1.77 µM with LOX IMVI melanoma; 2.46 µM with K-562 leukemia. In addition, the GI50 with HCC-2998 colon is 2.8 µM; in the experiment on HT29 colon it was 1.96 µM; in the experiment on MALME-3M melanoma, 2.78 µM; in the experiment on NCI-H460 lung it was 1.98 µM. The TGI was found to be 6.11 µM with HL-60(TB) leukemia; 8.76 µM in the experiment with T-47D breast; 3.14 µM with SF-539 CNS; 14 µM in the experiment with SF-268 CNS; 3.17 µM in the experiment with LOX IMVI melanoma; 8.64 µM with K-562 leukemia. Further, the TGI in the experiment with HCC-2998 colon is 7.1 µM; in the experiment on HT29 colon it was 3.74 µM; in the experiment on MALME-3M melanoma, 7.13 µM; in the experiment with NCI-H460 lung, 4.16 µM.

`Cc1ccc(OCCCCCCNCCO)c(C)c1`: the GI50 was 0.323 µM with HL-60(TB) leukemia; 11.7 µM in the experiment on T-47D breast; 14.7 µM with SF-539 CNS; 16 µM with SF-268 CNS; 15 µM with LOX IMVI melanoma; 12.2 µM in the experiment with K-562 leukemia. Besides, the GI50 in the experiment on HCC-2998 colon was 14.7 µM; in the experiment with HT29 colon, 11.3 µM; in the experiment on MALME-3M melanoma it was 17 µM; in the experiment on NCI-H460 lung, 14.9 µM. Also, the TGI with HL-60(TB) leukemia came out at 1.45 µM; in the experiment with T-47D breast it was 30.2 µM; in the experiment on SF-539 CNS it was 28.6 µM; in the experiment on SF-268 CNS, 31.1 µM; in the experiment on LOX IMVI melanoma, 29.7 µM; in the experiment on K-562 leukemia, 31.4 µM. For the same molecule, the TGI with HCC-2998 colon is 30.2 µM; with HT29 colon it was 25.6 µM; in the experiment with MALME-3M melanoma, 35.3 µM; in the experiment on NCI-H460 lung, 30.8 µM.
